Data published in publication PMC9611727, “Optimization of a Novel Mandelamide-Derived Pyrrolopyrimidine Series of PERK Inhibitors” (Pharmaceutics, 2022).

Experiments:
Assay in all cases: scanMAX kinase panel
Format in all cases: binding
AURKB = target: T1, AURKB (Homo sapiens, UniProt Q96GD4); conditions: read-out: % Control; for remaining binding at 1 µM: 1000 nM
T1 construct: purchased DiscoverX scanMAX
Description: (§1) Supplemental Table S2. scanMAXSM Kinome Assay Results. Complete tabulated data of all 468 kinases from the panel, including
(§2) 403 wild-type and 65 mutant isoforms. […] Cmpd 11 and Cmpd 24

FLT3(ITD,D835V) = tested on: FLT3(ITD,D835V)
Description: as §1, §2

FLT3(ITD,F691L) = tested on: FLT3(ITD,F691L)
Description: as §1, §2

GCN2(Kin.Dom.2,S808G) = target: T2, GCN2(Kin.Dom.2,S808G) (Homo sapiens, UniProt Q9P2K8, S808G); conditions: read-out: % Control; for remaining binding at 1 µM: 1000 nM
T2 construct: GCN2(Kin.Dom.2,S808G); purchased DiscoverX scanMAX
T2 sequence (Q9P2K8 590-1001 S808G limits assumed): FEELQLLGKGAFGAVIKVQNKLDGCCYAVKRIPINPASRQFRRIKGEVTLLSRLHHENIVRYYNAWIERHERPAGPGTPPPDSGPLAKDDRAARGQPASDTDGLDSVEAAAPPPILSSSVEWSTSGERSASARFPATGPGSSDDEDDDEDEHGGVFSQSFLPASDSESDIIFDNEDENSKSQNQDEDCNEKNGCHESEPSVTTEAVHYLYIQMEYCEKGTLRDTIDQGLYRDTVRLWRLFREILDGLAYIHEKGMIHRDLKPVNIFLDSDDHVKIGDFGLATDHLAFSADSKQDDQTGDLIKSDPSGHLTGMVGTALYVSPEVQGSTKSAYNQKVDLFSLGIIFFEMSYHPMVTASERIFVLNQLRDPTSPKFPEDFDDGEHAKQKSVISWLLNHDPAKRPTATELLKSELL
Description: as §1, §2

KIT(V559D) = target: T3, KIT(V559D) (Homo sapiens, UniProt P10721, V559D); conditions: read-out: % Control; for remaining binding at 1 µM: 1000 nM
T3 construct: purchased DiscoverX scanMAX
Description: as §1, §2

LTK = target: T4, LTK (Homo sapiens, UniProt P29376); conditions: read-out: % Control; for remaining binding at 1 µM: 1000 nM
T4 construct: purchased DiscoverX scanMAX
Description: as §1, §2

MAP3K15 = target: T5, MAP3K15 (Homo sapiens, UniProt Q6ZN16); conditions: read-out: % Control; for remaining binding at 1 µM: 1000 nM
T5 construct: purchased DiscoverX scanMAX
T5 sequence (Q6ZN16 1-1313): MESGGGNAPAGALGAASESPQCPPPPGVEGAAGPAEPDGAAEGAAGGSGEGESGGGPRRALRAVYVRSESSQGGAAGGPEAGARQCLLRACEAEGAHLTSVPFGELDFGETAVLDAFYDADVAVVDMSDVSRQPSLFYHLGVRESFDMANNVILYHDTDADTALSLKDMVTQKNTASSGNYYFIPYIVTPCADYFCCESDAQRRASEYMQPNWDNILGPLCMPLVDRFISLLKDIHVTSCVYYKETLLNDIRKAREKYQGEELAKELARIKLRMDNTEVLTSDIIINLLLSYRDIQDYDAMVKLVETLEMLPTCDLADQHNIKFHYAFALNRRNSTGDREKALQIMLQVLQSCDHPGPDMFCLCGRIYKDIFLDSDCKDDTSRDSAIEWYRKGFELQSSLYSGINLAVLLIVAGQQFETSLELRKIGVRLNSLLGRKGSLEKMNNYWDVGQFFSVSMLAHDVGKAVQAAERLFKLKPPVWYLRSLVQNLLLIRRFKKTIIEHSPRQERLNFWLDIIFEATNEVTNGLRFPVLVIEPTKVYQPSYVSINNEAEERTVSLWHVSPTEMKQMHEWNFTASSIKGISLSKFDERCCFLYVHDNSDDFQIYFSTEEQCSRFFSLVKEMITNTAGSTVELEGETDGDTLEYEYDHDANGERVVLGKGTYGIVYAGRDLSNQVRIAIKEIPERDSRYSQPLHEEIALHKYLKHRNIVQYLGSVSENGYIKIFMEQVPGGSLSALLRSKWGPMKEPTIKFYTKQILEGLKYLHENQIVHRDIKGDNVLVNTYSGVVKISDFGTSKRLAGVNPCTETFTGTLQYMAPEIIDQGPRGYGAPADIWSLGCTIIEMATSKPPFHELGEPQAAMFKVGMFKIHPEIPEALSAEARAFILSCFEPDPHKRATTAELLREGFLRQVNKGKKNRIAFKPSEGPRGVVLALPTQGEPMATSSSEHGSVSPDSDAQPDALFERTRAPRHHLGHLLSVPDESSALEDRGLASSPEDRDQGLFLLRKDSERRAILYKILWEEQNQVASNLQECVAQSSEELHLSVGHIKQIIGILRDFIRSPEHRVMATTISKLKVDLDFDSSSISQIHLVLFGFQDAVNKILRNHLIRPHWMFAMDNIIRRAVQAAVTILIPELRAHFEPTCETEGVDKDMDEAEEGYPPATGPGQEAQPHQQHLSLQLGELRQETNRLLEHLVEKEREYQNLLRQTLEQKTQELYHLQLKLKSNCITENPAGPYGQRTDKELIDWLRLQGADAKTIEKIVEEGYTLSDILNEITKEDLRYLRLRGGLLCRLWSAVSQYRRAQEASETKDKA
Description: as §1, §2

PDGFRB = target: T6, PDGFRB (Homo sapiens, UniProt P09619); conditions: read-out: % Control; for remaining binding at 1 µM: 1000 nM
T6 construct: purchased DiscoverX scanMAX
Description: as §1, §2

PIK4CB = target: T7, PIK4CB (Homo sapiens, UniProt Q9UBF8); conditions: read-out: % Control; for remaining binding at 1 µM: 1000 nM
T7 construct: purchased DiscoverX scanMAX
Description: as §1, §2

TRKB = target: T8, TRKB (Homo sapiens, UniProt Q16620); conditions: read-out: % Control; for remaining binding at 1 µM: 1000 nM
T8 construct: purchased DiscoverX (scanMAX panel)
Description: as §1, §2

T8 sequence (Q16620 32-822): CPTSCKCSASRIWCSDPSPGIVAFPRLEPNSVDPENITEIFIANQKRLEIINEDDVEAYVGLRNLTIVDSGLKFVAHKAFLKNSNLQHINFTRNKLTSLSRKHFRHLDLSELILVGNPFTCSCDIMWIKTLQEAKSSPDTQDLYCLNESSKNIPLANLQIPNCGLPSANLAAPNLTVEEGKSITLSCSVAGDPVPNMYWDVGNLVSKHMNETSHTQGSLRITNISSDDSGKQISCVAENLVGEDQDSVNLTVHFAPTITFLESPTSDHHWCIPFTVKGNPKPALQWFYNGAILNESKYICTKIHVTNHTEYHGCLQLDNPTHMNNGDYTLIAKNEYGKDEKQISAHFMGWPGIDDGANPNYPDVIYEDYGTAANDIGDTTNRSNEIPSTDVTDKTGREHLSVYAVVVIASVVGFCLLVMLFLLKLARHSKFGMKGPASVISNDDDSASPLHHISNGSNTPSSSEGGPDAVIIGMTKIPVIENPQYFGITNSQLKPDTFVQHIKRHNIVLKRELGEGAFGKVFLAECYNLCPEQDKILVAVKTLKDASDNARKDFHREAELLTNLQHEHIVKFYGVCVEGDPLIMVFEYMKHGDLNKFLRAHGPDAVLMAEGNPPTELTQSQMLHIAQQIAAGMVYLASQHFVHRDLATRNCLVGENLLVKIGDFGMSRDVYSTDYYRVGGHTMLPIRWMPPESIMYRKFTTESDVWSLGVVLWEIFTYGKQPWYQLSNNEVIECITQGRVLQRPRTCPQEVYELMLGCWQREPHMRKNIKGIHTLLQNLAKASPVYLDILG
T6 sequence (P09619 33-1106): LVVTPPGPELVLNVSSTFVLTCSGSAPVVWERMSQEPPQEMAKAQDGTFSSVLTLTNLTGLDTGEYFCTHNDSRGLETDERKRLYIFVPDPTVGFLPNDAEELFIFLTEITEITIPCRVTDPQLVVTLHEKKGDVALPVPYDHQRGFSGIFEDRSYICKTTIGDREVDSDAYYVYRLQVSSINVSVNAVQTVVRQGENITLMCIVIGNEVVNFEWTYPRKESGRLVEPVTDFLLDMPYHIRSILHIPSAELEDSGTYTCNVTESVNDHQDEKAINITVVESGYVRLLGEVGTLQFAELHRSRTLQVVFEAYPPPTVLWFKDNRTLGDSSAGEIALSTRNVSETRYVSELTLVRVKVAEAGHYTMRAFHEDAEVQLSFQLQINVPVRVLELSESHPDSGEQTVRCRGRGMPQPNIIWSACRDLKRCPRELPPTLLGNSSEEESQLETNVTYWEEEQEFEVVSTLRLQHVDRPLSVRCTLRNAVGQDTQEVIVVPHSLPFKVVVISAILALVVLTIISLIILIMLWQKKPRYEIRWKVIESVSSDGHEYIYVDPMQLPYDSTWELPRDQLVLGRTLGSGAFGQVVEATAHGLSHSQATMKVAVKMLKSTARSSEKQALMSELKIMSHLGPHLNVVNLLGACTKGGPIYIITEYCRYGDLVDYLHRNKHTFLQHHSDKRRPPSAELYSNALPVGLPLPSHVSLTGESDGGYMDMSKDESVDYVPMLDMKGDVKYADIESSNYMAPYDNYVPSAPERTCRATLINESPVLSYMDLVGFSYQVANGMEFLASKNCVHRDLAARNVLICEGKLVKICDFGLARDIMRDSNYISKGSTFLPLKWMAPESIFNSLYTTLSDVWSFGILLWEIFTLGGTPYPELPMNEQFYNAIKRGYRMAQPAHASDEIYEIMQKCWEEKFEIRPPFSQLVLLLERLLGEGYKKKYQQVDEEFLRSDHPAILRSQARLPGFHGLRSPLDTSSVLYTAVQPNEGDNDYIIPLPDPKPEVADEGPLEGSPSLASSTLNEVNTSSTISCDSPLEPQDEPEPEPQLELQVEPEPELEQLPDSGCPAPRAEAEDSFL
T7 sequence (Q9UBF8 whole entry): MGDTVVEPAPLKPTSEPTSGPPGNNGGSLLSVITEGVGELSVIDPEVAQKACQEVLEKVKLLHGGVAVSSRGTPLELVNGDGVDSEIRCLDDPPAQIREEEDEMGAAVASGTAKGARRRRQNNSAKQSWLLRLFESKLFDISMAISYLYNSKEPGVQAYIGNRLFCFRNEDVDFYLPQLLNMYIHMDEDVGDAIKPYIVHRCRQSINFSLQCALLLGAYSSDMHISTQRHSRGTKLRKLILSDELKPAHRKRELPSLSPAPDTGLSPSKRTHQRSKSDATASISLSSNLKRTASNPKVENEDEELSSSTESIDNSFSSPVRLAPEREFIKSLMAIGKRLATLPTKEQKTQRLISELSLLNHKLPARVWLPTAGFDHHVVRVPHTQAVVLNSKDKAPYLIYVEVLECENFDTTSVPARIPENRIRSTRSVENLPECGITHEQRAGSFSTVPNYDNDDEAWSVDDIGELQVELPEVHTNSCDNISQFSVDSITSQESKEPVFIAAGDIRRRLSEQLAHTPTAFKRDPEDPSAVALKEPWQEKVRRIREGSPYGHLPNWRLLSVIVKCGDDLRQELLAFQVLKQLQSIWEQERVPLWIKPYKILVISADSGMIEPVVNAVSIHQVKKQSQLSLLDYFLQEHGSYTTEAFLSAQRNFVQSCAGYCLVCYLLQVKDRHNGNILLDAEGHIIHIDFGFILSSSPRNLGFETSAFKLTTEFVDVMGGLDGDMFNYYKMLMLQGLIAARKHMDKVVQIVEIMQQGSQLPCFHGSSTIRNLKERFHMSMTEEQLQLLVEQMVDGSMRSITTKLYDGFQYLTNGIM
T1 sequence (Q96GD4 whole entry): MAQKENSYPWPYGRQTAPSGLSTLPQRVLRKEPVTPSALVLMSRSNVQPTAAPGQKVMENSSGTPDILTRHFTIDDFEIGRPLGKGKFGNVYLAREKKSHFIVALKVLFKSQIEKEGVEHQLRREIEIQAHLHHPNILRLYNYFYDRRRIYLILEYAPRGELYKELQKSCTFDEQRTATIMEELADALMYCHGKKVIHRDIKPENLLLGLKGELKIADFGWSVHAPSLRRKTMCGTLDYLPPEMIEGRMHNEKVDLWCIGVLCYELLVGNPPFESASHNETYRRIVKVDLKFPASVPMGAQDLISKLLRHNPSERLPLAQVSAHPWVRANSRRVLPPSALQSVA
T3 sequence (P10721 26-976 V559D): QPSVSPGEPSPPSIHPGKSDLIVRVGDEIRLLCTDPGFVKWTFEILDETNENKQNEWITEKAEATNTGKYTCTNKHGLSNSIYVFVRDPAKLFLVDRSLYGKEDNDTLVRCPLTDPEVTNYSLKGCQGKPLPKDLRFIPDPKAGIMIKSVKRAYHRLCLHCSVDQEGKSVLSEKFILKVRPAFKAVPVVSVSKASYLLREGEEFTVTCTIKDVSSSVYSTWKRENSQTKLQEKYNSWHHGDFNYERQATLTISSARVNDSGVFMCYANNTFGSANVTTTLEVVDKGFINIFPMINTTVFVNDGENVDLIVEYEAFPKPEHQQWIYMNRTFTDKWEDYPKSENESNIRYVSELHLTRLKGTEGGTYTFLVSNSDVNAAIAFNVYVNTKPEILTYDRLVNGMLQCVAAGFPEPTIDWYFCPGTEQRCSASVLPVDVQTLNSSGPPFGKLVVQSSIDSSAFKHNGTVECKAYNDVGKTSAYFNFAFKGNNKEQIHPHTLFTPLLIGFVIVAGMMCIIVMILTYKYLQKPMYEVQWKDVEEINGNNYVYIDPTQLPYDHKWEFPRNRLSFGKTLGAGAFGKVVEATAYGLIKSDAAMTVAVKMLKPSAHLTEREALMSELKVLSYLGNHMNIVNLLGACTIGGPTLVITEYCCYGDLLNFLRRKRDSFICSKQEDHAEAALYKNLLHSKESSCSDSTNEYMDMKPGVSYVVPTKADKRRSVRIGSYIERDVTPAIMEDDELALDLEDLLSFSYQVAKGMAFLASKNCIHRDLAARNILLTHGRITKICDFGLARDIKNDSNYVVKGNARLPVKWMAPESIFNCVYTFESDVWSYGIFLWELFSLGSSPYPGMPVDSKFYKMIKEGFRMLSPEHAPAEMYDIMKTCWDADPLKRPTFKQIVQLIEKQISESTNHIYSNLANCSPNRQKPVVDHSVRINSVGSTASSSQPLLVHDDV
T4 sequence (P29376 17-864): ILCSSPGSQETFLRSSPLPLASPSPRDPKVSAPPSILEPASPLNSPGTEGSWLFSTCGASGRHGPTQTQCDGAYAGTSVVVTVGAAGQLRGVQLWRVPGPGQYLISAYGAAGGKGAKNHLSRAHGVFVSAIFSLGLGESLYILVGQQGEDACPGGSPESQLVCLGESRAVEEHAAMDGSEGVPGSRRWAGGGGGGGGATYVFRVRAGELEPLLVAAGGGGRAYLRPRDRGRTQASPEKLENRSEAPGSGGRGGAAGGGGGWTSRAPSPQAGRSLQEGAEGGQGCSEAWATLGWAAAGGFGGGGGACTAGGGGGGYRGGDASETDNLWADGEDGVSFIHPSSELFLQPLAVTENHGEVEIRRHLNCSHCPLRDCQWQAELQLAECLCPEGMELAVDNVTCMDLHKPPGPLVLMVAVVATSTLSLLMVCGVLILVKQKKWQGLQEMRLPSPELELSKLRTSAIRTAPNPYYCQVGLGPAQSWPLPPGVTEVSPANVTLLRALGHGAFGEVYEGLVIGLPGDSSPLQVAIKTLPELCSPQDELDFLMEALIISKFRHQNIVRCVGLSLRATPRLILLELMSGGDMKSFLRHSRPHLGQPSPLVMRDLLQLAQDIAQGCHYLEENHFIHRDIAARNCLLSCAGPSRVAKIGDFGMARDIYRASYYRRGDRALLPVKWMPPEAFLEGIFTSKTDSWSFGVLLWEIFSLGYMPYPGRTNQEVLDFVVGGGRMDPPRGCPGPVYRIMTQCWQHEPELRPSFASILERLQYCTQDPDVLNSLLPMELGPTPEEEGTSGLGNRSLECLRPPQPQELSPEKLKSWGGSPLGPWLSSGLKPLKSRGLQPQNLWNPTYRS

Row | Compound | remaining binding at 1 µM (AURKB) [%] | % Control (FLT3(ITD,D835V); 1000 nM) [%] | % Control (FLT3(ITD,F691L); 1000 nM) [%] | remaining binding at 1 µM (GCN2(Kin.Dom.2,S808G)) [%] | remaining binding at 1 µM (KIT(V559D)) [%] | remaining binding at 1 µM (LTK) [%] | remaining binding at 1 µM (MAP3K15) [%] | remaining binding at 1 µM (PDGFRB) [%] | remaining binding at 1 µM (PIK4CB) [%] | remaining binding at 1 µM (TRKB) [%] | remaining binding at 0.1 µM (AURKB; 100 nM) [%] | % Control (FLT3(ITD,D835V); 100 nM) [%] | % Control (FLT3(ITD,F691L); 100 nM) [%] | remaining binding at 0.1 µM (GCN2(Kin.Dom.2,S808G); 100 nM) [%] | remaining binding at 0.1 µM (KIT(V559D); 100 nM) [%] | remaining binding at 0.1 µM (LTK; 100 nM) [%] | remaining binding at 0.1 µM (MAP3K15; 100 nM) [%] | remaining binding at 0.1 µM (PDGFRB; 100 nM) [%] | remaining binding at 0.1 µM (PIK4CB; 100 nM) [%] | remaining binding at 0.1 µM (TRKB; 100 nM) [%]
1 | Cc1cc(NC(=O)[C@H](O)c2cccc(F)c2)ccc1-c1cn(C)c2ncnc(N)c12 [Compound 11, (R)-N-(4-(4-amino-7-methyl-7H-pyrrolo[2,3-d]pyrimidin-5-yl)-3-methylphenyl)-2-(3-fluorophenyl)-2-hydroxy acetamide] | 24 | 89 | 100 | 84 | 27 | 35 | 29 | 40 | 84 | 22 | – | – | – | – | – | – | – | – | – | –
2 | Cc1nc(N)c2c(-c3ccc(NC(=O)[C@H](O)c4cccc(F)c4)cc3C)cn(C)c2n1 [Compound 24] | 90 | 100 | 63 | 100 | 72 | 100 | 82 | 100 | 28 | 96 | – | – | – | – | – | – | – | – | – | –
3 | Cc1nc(N)c2c(-c3ccc(NC(=O)[C@H](O)c4cccc(C(F)(F)F)c4)cc3C)cn(C)c2n1 [Compound 26] | 70 | 75 | 42 | 94 | 0.45 | 22 | 99 | 11 | 4.3 | 18 | 81 | 100 | 41 | 76 | 96 | 98 | 100 | 100 | 93 | 92
